Data from ChEMBL document CHEMBL4823252 (J Med Chem, 2021).

Key:
MV4-11 = assay: Antiproliferative activity against human MV4-11 cells incubated for 72 hrs by Cell Counting Kit-8 assay; format: functional, cell-based; conditions: MV4-11, 72 h
[1] = Chemical stability of compound incubated for 90 days by HPLC analysis; format: physicochemical; conditions: time 90 day; read-out: Stabilty
MOLM-13 [2] = assay: Antiproliferative activity against human MOLM-13 cells incubated for 72 hrs by Cell Counting Kit-8 assay; format: functional, cell-based; conditions: MOLM-13, 72 h
[3] = biological target: T1, Receptor-type tyrosine-protein kinase FLT3 (Homo sapiens, UniProt P36888); assay: Inhibition of FLT3 (unknown origin) incubated for 30 mins in presence of ATP by mobility shift assay
T1 sequence (P36888 whole entry): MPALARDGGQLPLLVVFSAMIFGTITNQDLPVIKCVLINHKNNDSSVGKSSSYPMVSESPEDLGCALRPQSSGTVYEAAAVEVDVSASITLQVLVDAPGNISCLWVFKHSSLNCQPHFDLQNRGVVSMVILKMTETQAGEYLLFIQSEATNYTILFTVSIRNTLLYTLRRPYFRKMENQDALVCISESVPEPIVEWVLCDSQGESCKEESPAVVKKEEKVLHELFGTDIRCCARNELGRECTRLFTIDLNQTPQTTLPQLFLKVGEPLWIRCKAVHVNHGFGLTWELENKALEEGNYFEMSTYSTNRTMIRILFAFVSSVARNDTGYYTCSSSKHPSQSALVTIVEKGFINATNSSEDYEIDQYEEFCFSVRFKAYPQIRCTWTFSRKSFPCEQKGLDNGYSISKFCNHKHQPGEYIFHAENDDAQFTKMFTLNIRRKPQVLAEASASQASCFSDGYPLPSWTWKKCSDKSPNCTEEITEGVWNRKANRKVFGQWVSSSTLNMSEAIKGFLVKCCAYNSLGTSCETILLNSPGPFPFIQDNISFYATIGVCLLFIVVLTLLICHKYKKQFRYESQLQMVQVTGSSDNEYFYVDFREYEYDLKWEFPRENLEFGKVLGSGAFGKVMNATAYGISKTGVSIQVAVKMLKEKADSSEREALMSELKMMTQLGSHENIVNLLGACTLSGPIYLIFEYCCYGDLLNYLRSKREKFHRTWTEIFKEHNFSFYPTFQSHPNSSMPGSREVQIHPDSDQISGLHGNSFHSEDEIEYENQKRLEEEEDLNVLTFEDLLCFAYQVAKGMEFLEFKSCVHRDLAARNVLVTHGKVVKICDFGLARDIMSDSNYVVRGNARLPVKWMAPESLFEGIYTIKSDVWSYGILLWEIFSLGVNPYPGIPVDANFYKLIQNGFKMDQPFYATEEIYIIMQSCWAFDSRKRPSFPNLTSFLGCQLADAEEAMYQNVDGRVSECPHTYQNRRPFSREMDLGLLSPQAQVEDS

MOLM-13 [4] = assay: Antiproliferative activity against human quizartinib-resistant MOLM-13 cells at 12 nM incubated for 72 hrs by CCK8 assay relative to control; format: functional
MOLM-13 [5] = assay: Antiproliferative activity against human quizartinib-resistant MOLM-13 cells at 333 nM incubated for 72 hrs by CCK8 assay relative to control; format: functional
MOLM-13 [6] = assay: Antiproliferative activity against human sunitinib-resistant MOLM-13 cells at 111 nM incubated for 72 hrs by CCK8 assay relative to control; format: functional
MOLM-13 [7] = assay: Antiproliferative activity against human quizartinib-resistant MOLM-13 cells at 111 nM incubated for 72 hrs by CCK8 assay relative to control; format: functional
MOLM-13 [8] = assay: Antiproliferative activity against human sunitinib-resistant MOLM-13 cells at 333 nM incubated for 72 hrs by CCK8 assay relative to control; format: functional
MOLM-13 [9] = assay: Antiproliferative activity against human sunitinib-resistant MOLM-13 cells at 12 nM incubated for 72 hrs by CCK8 assay relative to control; format: functional
MOLM-13 [10] = assay: Antiproliferative activity against human quizartinib-resistant MOLM-13 cells at 4 nM incubated for 72 hrs by CCK8 assay relative to control; format: functional
MOLM-13 [11] = assay: Antiproliferative activity against human quizartinib-resistant MOLM-13 cells at 1 nM incubated for 72 hrs by CCK8 assay relative to control; format: functional
MOLM-13 [12] = assay: Antiproliferative activity against human quizartinib-resistant MOLM-13 cells at 37 nM incubated for 72 hrs by CCK8 assay relative to control; format: functional
MOLM-13 [13] = assay: Antiproliferative activity against human sunitinib-resistant MOLM-13 cells at 4 nM incubated for 72 hrs by CCK8 assay relative to control; format: functional
MOLM-13 [14] = assay: Antiproliferative activity against human sunitinib-resistant MOLM-13 cells at 1000 nM incubated for 72 hrs by CCK8 assay relative to control; format: functional
MOLM-13 [15] = assay: Antiproliferative activity against human sunitinib-resistant MOLM-13 cells at 1 nM incubated for 72 hrs by CCK8 assay relative to control; format: functional
MOLM-13 [16] = assay: Antiproliferative activity against human sunitinib-resistant MOLM-13 cells at 37 nM incubated for 72 hrs by CCK8 assay relative to control; format: functional
MOLM-13 [17] = assay: Antiproliferative activity against human quizartinib-resistant MOLM-13 cells at 1000 nM incubated for 72 hrs by CCK8 assay relative to control; format: functional

IC50 (MV4-11) | IC50 (MOLM-13 [2]) | IC50 [3] | Compound | other results
50.7 nM | – | – | Cc1c(/C=C2\C(=O)Nc3ccc(F)cc32)[nH]c(Cl)c1NC(=O)[C@@H]1CCCN1 | remaining at 2160 h [1]: 95.4%
133 nM | 173 nM | – | Cc1c(NC(=O)CCN2CCOCC2)c[nH]c1/C=C1\C(=O)Nc2ccc(F)cc21 | –
30.3 nM | 54.3 nM | 2 nM | CCN(CC)CCC(=O)Nc1c[nH]c(/C=C2\C(=O)Nc3ccc(F)cc32)c1C | –
40.9 nM | – | – | Cc1[nH]c(/C=C2\C(=O)Nc3ccc(F)cc32)c(C)c1NC(=O)[C@@H]1CCCN1 | remaining at 2160 h [1]: 80.8%
37.2 nM | 35.9 nM | 2.5 nM | Cc1c(NC(=O)[C@@H]2CCCN2)c[nH]c1/C=C1\C(=O)Nc2ccc(F)cc21 | remaining at 2160 h [1]: 99.1%
61.5 nM | – | – | Cc1c(/C=C2\C(=O)Nc3ccc(F)cc32)[nH]c(Br)c1NC(=O)[C@@H]1CCCN1 | remaining at 2160 h [1]: 96.6%
– | – | – | CC(C)(C)c1cc(NC(=O)Nc2ccc(-c3cn4c(n3)sc3cc(OCCN5CCOCC5)ccc34)cc2)no1 [QUIZARTINIB] | Activity (MOLM-13 [4]): 2.9%; Activity (MOLM-13 [5]): -4.1%; Activity (MOLM-13 [6]): -1.5%; Activity (MOLM-13 [7]): -5.8%; Activity (MOLM-13 [8]): 5.7%; Activity (MOLM-13 [9]): 2.8%; Activity (MOLM-13 [10]): -0.4%; Activity (MOLM-13 [11]): 5.2%; Activity (MOLM-13 [12]): -0.8%; Activity (MOLM-13 [13]): -0.9%; Activity (MOLM-13 [14]): 10.9%; Activity (MOLM-13 [15]): 1.4%; Activity (MOLM-13 [16]): 0.2%; Activity (MOLM-13 [17]): 1.3%
44.8 nM | 58.2 nM | 1.8 nM | Cc1c(NC(=O)CCNC(C)(C)C)c[nH]c1/C=C1\C(=O)Nc2ccc(F)cc21 | –
34.5 nM | 51.2 nM | 2.5 nM | CCNCCC(=O)Nc1c[nH]c(/C=C2\C(=O)Nc3ccc(F)cc32)c1C | –
78.6 nM | 36 nM | 2 nM | Cc1c(NC(=O)CN(C)C)c[nH]c1/C=C1\C(=O)Nc2ccc(F)cc21 | –
34.7 nM | 57.4 nM | 1.7 nM | CCCNCCC(=O)Nc1c[nH]c(/C=C2\C(=O)Nc3ccc(F)cc32)c1C | –
177 nM | 143 nM | – | Cc1c(NC(=O)C2CCNCC2)c[nH]c1/C=C1\C(=O)Nc2ccc(F)cc21 | –
125 nM | 158 nM | – | Cc1c(NC(=O)CNC2CCCC2)c[nH]c1/C=C1\C(=O)Nc2ccc(F)cc21 | –
28.9 nM | 55.7 nM | – | COc1ccc2c(c1)/C(=C/c1[nH]cc(NC(=O)CCN3CCCC3)c1C)C(=O)N2 | –
41.3 nM | 47.5 nM | 3 nM | Cc1c(NC(=O)CCN2CCN(C)CC2)c[nH]c1/C=C1\C(=O)Nc2ccc(F)cc21 | –
58.6 nM | 71.5 nM | – | Cc1c(NC(=O)CCN2CCCC2)c[nH]c1/C=C1\C(=O)Nc2ccc(Br)cc21 | –
50 nM | 35.9 nM | 2.7 nM | Cc1c(NC(=O)CC2CCCN2)c[nH]c1/C=C1\C(=O)Nc2ccc(F)cc21 (stereo unspecified) | –
44.2 nM | 64.2 nM | 1.3 nM | Cc1c(NC(=O)CCN2CCCCC2)c[nH]c1/C=C1\C(=O)Nc2ccc(F)cc21 | –
69.9 nM | 70.8 nM | – | Cc1c(NC(=O)[C@H]2CCCN2)c[nH]c1/C=C1\C(=O)Nc2ccc(F)cc21 | –
81.7 nM | 176 nM | – | CCN(CC)CC(=O)Nc1c[nH]c(/C=C2\C(=O)Nc3ccc(F)cc32)c1C | –
29.2 nM | 44.3 nM | 0.6 nM | Cc1c(NC(=O)CCNC2CCCC2)c[nH]c1/C=C1\C(=O)Nc2ccc(F)cc21 | –
54.4 nM | 59.2 nM | 2.4 nM | Cc1c(NC(=O)C2CCCCN2)c[nH]c1/C=C1\C(=O)Nc2ccc(F)cc21 (stereo unspecified) | –
20.9 nM | 64.5 nM | – | Cc1c(NC(=O)CCN2CCCC2)c[nH]c1/C=C1\C(=O)Nc2ccc(Cl)cc21 | –
32.4 nM | 57 nM | 1.7 nM | Cc1c(NC(=O)CCN(C)C)c[nH]c1/C=C1\C(=O)Nc2ccc(F)cc21 | –
51.8 nM | 48.4 nM | 2.7 nM | Cc1c(NC(=O)CN2CCN(C)CC2)c[nH]c1/C=C1\C(=O)Nc2ccc(F)cc21 | –
77 nM | 61.9 nM | 1.4 nM | Cc1c(NC(=O)CN2CCCC2)c[nH]c1/C=C1\C(=O)Nc2ccc(F)cc21 | –
252 nM | > 1000 nM | – | Cc1c(NC(=O)CN2CCCCC2)c[nH]c1/C=C1\C(=O)Nc2ccc(F)cc21 | –
